Reference: ChEMBL document CHEMBL3885881, “DrugMatrix”

Species on record: Rattus norvegicus
Experiment: DrugMatrix - Regimen: Daily Repeat
Assay type: toxicity, organism-based, Sprague-Dawley
Parameters: regimen Daily Repeat, gender Male, age 6-8 weeks
Conditions: in vivo, po, 0 mg/kg, route oral GAVAGE, dose level Control, vehicle 100 % WATER; for ABSOLUTE BASOPHIL / ABSOLUTE EOSINOPHIL / ABSOLUTE LYMPHOCYTE / ABSOLUTE MONOCYTE / ABSOLUTE SEGMENTED NEUTROPHIL / BASOPHIL / EOSINOPHIL / ERYTHROCYTE COUNT / HEMATOCRIT / HEMOGLOBIN / LEUKOCYTE COUNT / LYMPHOCYTE / MEAN CORPUSCULAR HEMOGLOBIN / MEAN CORPUSCULAR HEMOGLOBIN CONCENTRATION / MEAN CORPUSCULAR VOLUME / MONOCYTE / NEUTROPHIL / NUCLEATED RED BLOOD CELLS / PLATELET COUNT: tissue Blood; for ALANINE AMINOTRANSFERASE / ALBUMIN / ALKALINE PHOSPHATASE / ASPARTATE AMINOTRANSFERASE / BLOOD UREA NITROGEN / CARBON DIOXIDE / CHLORIDE / CHOLESTEROL / CREATINE PHOSPHOKINASE / CREATININE / GLUCOSE / LACTATE DEHYDROGENASE / LIPASE / PHOSPHORUS / POTASSIUM / SODIUM / TOTAL BILIRUBIN / TOTAL PROTEIN / URIC ACID: tissue Plasma

Q: `C[N+](C)(C)CCO.[Cl-]` [CHOLINE CHLORIDE] was tested. Which “ABSOLUTE BASOPHIL” value (72 h, time 3 day) did it give?
A: The value was 0 CELLS/uL.

Q: And the “ABSOLUTE EOSINOPHIL” value (72 h, time 3 day)?
A: Its value is 0 CELLS/uL.

Q: And the “ABSOLUTE LYMPHOCYTE” value (72 h, time 3 day)?
A: The value was 10386.33 CELLS/uL.

Q: What about the “ABSOLUTE MONOCYTE” value (72 h, time 3 day) of the same molecule?
A: The value was 88.5 CELLS/uL.

Q: What about the “ABSOLUTE SEGMENTED NEUTROPHIL” value (72 h, time 3 day) of the same molecule?
A: The value was 1008.5 CELLS/uL.

Q: What about the BASOPHIL (72 h, time 3 day) of the same molecule?
A: Its BASOPHIL is 0%.

Q: What about the EOSINOPHIL (72 h, time 3 day) of the same molecule?
A: The EOSINOPHIL was 0%.

Q: And the “ERYTHROCYTE COUNT” value (72 h, time 3 day)?
A: The value was 5.16 x10E6/uL.

Q: What about the HEMATOCRIT (72 h, time 3 day) of the same molecule?
A: Its HEMATOCRIT is 32.43%.

Q: And the HEMOGLOBIN (72 h, time 3 day)?
A: The HEMOGLOBIN was 12.98 G/DL.

Q: And the “LEUKOCYTE COUNT” value (72 h, time 3 day)?
A: The value was 11.48 x10E3/uL.

Q: What about the LYMPHOCYTE (72 h, time 3 day) of the same molecule?
A: Its LYMPHOCYTE is 92.33%.

Q: And the “MEAN CORPUSCULAR HEMOGLOBIN” value (72 h, time 3 day)?
A: Its value is 25.23 pg.

Q: What about the “MEAN CORPUSCULAR HEMOGLOBIN CONCENTRATION” value (72 h, time 3 day) of the same molecule?
A: Its value is 40.08 G/DL.

Q: What about the “MEAN CORPUSCULAR VOLUME” value (72 h, time 3 day) of the same molecule?
A: Its value is 62.95 fL.

Q: What about the MONOCYTE (72 h, time 3 day) of the same molecule?
A: Its MONOCYTE is 0.67%.

Q: What about the NEUTROPHIL (72 h, time 3 day) of the same molecule?
A: Its NEUTROPHIL is 7%.

Q: What about the “NUCLEATED RED BLOOD CELLS” value (72 h, time 3 day) of the same molecule?
A: The value was 0 /100WBC.

Q: What about the “PLATELET COUNT” value (72 h, time 3 day) of the same molecule?
A: The value was 1016.67 x10E3/uL.

Q: And the “ALANINE AMINOTRANSFERASE” value (72 h, time 3 day)?
A: Its value is 62.17 u/L.

Q: And the ALBUMIN (72 h, time 3 day)?
A: The ALBUMIN was 3.95 G/DL.

Q: What about the “ALKALINE PHOSPHATASE” value (72 h, time 3 day) of the same molecule?
A: Its value is 363.5 u/L.

Q: What about the “ASPARTATE AMINOTRANSFERASE” value (72 h, time 3 day) of the same molecule?
A: The value was 118 u/L.

Q: And the “BLOOD UREA NITROGEN” value (72 h, time 3 day)?
A: The value was 14.5 mg/dL.

Q: And the “CARBON DIOXIDE” value (72 h, time 3 day)?
A: The value was 22.83 mmol/L.

Q: And the CHLORIDE (72 h, time 3 day)?
A: Its CHLORIDE is 100.67 MEQ/L.

Q: And the CHOLESTEROL (72 h, time 3 day)?
A: The CHOLESTEROL was 66 mg/dL.

Q: And the “CREATINE PHOSPHOKINASE” value (72 h, time 3 day)?
A: Its value is 1308.83 u/L.

Q: What about the CREATININE (72 h, time 3 day) of the same molecule?
A: The CREATININE was 0.22 mg/dL.

Q: And the GLUCOSE (72 h, time 3 day)?
A: Its GLUCOSE is 187.5 mg/dL.

Q: What about the “LACTATE DEHYDROGENASE” value (72 h, time 3 day) of the same molecule?
A: The value was 380.17 u/L.

Q: What about the LIPASE (72 h, time 3 day) of the same molecule?
A: The LIPASE was 16.17 u/L.

Q: And the PHOSPHORUS (72 h, time 3 day)?
A: The PHOSPHORUS was 14.27 mg/dL.

Q: What about the POTASSIUM (72 h, time 3 day) of the same molecule?
A: Its POTASSIUM is 6.8 MEQ/L.

Q: And the SODIUM (72 h, time 3 day)?
A: The SODIUM was 142.53 MEQ/L.

Q: And the “TOTAL BILIRUBIN” value (72 h, time 3 day)?
A: Its value is 0.2 mg/dL.

Q: And the “TOTAL PROTEIN” value (72 h, time 3 day)?
A: Its value is 5.68 G/DL.

Q: And the “URIC ACID” value (72 h, time 3 day)?
A: The value was 2.87 mg/dL.

Q: What about the “ABSOLUTE BASOPHIL” value (120 h, time 5 day) of the same molecule?
A: Its value is 0 CELLS/uL.

Q: What about the “ABSOLUTE EOSINOPHIL” value (120 h, time 5 day) of the same molecule?
A: Its value is 80 CELLS/uL.

Q: What about the “ABSOLUTE LYMPHOCYTE” value (120 h, time 5 day) of the same molecule?
A: Its value is 13301.33 CELLS/uL.

Q: What about the “ABSOLUTE MONOCYTE” value (120 h, time 5 day) of the same molecule?
A: The value was 180.83 CELLS/uL.

Q: And the “ABSOLUTE SEGMENTED NEUTROPHIL” value (120 h, time 5 day)?
A: The value was 1187.83 CELLS/uL.

Q: And the BASOPHIL (120 h, time 5 day)?
A: The BASOPHIL was 0%.

Q: And the EOSINOPHIL (120 h, time 5 day)?
A: Its EOSINOPHIL is 0.5%.

Q: And the “ERYTHROCYTE COUNT” value (120 h, time 5 day)?
A: Its value is 5.54 x10E6/uL.

Q: What about the HEMATOCRIT (120 h, time 5 day) of the same molecule?
A: The HEMATOCRIT was 35.65%.

Q: What about the HEMOGLOBIN (120 h, time 5 day) of the same molecule?
A: The HEMOGLOBIN was 14.22 G/DL.

Q: And the “LEUKOCYTE COUNT” value (120 h, time 5 day)?
A: Its value is 14.75 x10E3/uL.

Q: And the LYMPHOCYTE (120 h, time 5 day)?
A: Its LYMPHOCYTE is 90.67%.

Q: And the “MEAN CORPUSCULAR HEMOGLOBIN” value (120 h, time 5 day)?
A: The value was 25.65 pg.

Q: What about the “MEAN CORPUSCULAR HEMOGLOBIN CONCENTRATION” value (120 h, time 5 day) of the same molecule?
A: The value was 39.88 G/DL.

Q: And the “MEAN CORPUSCULAR VOLUME” value (120 h, time 5 day)?
A: The value was 64.35 fL.

Q: What about the MONOCYTE (120 h, time 5 day) of the same molecule?
A: The MONOCYTE was 1%.

Q: What about the NEUTROPHIL (120 h, time 5 day) of the same molecule?
A: The NEUTROPHIL was 7.83%.

Q: What about the “NUCLEATED RED BLOOD CELLS” value (120 h, time 5 day) of the same molecule?
A: The value was 0.17 /100WBC.

Q: What about the “PLATELET COUNT” value (120 h, time 5 day) of the same molecule?
A: The value was 1285.33 x10E3/uL.

Q: What about the “ALANINE AMINOTRANSFERASE” value (120 h, time 5 day) of the same molecule?
A: Its value is 51.67 u/L.

Q: And the ALBUMIN (120 h, time 5 day)?
A: The ALBUMIN was 4.08 G/DL.

Q: What about the “ALKALINE PHOSPHATASE” value (120 h, time 5 day) of the same molecule?
A: The value was 391.5 u/L.

Q: What about the “ASPARTATE AMINOTRANSFERASE” value (120 h, time 5 day) of the same molecule?
A: The value was 99.5 u/L.

Q: What about the “BLOOD UREA NITROGEN” value (120 h, time 5 day) of the same molecule?
A: The value was 15.5 mg/dL.

Q: And the “CARBON DIOXIDE” value (120 h, time 5 day)?
A: Its value is 28.33 mmol/L.

Q: And the CHLORIDE (120 h, time 5 day)?
A: Its CHLORIDE is 101.83 MEQ/L.

Q: What about the CHOLESTEROL (120 h, time 5 day) of the same molecule?
A: Its CHOLESTEROL is 67.83 mg/dL.

Q: What about the “CREATINE PHOSPHOKINASE” value (120 h, time 5 day) of the same molecule?
A: The value was 771.33 u/L.

Q: What about the CREATININE (120 h, time 5 day) of the same molecule?
A: The CREATININE was 0.23 mg/dL.

Q: And the GLUCOSE (120 h, time 5 day)?
A: Its GLUCOSE is 156.5 mg/dL.

Q: What about the “LACTATE DEHYDROGENASE” value (120 h, time 5 day) of the same molecule?
A: Its value is 544.33 u/L.

Q: And the LIPASE (120 h, time 5 day)?
A: Its LIPASE is 10.17 u/L.

Q: And the PHOSPHORUS (120 h, time 5 day)?
A: The PHOSPHORUS was 12.03 mg/dL.

Q: What about the POTASSIUM (120 h, time 5 day) of the same molecule?
A: The POTASSIUM was 6.81 MEQ/L.

Q: And the SODIUM (120 h, time 5 day)?
A: Its SODIUM is 144.13 MEQ/L.

Q: And the “TOTAL BILIRUBIN” value (120 h, time 5 day)?
A: The value was 0.22 mg/dL.

Q: And the “TOTAL PROTEIN” value (120 h, time 5 day)?
A: The value was 6 G/DL.

Q: And the “URIC ACID” value (120 h, time 5 day)?
A: The value was 2.18 mg/dL.
